# Results published in paper PMC4236622 (Cancer Chemotherapy and Pharmacology, 2014).
# Key:
# [1] = mice; no reference given; cited from earlier work
# [2] = test system: MCF-7 breast tumor; experiment: Activity in MCF-7 breast tumor xenograft model; format: in vivo, mouse
# Source text: (§1) Tumor volume was estimated as described above.
# (§2) Studies were terminated on Days 59 (HT29), 61 (NCI-H460), 72 (MCF-7), 60 (A2780, q7dx3), 76 (A2780 qdx1), and 84 (NCI-N87).
# (§3) Kaplan–Meier plots were constructed to show the percentage of animals remaining in the study to perform the logrank test. Median tumor growth curves show group median tumor volumes as a function of time. When an animal exited the study due to tumor size, the final tumor volume recorded for the animal was included with the data used to calculate the group median tumor volume at subsequent time points.
# [3] = test system: NCI-H460 lung tumor; experiment: Activity in NCI-H460 lung tumor xenograft model; format: in vivo, mouse; conditions: for Median TTE: endpoint 1,500 mm3; for Survivors not reaching tumor endpoint: endpoint 1,500 mm3 or Day 57; for Tumor regression, Complete / Tumor regression, Partial: NCI-H460 lung tumor model, animals/group
# Source text: as §1, §2, §3
# [4] = Plasma and tumor pharmacokinetics in tumor-bearing mice (HT29 and NCI-H460, model not distinguished); conditions: after conventional irinotecan 40 mg/kg iv Days 0, 4, 8
# Description: (§4) The length and width of each tumor was recorded 2–3 times a week, and the corresponding tumor volume was estimated using the formula L × W ^2/2 = mm^3, where L and W refer to the larger and smaller perpendicular tumor dimensions, respectively. Animals found moribund or with tumors ≥4,000 mm^3, ulcerated, or sloughed off were euthanized prior to scheduled termination. […] Plasma was harvested, frozen on dry ice, and stored at −80 °C until assayed. Immediately following blood collection, animals were euthanized, and the tumors were excised, frozen in liquid nitrogen, and stored at −80 °C until assayed.
# [5] = test system: NCI-N87 gastric tumor; experiment: Activity in NCI-N87 gastric tumor xenograft model; format: in vivo, mouse
# Source text: as §1, §2, §3
# [6] = Tolerability in mouse xenograft studies (body weight, mortality); format: in vivo; conditions: all doses, all xenograft models
# Source text: as §1
# [7] = test system: A2780 ovarian tumor; experiment: Activity in A2780 ovarian tumor xenograft model; format: in vivo, mouse
# Source text: as §1, §2, §3
# [8] = humans, cited from earlier work; for time post-dose at which concentrations fall below 0.1 ng/mL: following irinotecan infusion (350 mg/m2 every 21 days), reference not given
# [9] = test system: HT29 colon tumor; experiment: Activity in HT29 colon tumor xenograft model; format: in vivo, mouse; conditions: for Median TTE: endpoint 1,000 mm3; for Survivors not reaching tumor endpoint: endpoint 1,000 mm3 or Day 73; for Tumor regression, Complete / Tumor regression, Partial: HT29 colon tumor model, animals/group
# Source text: as §1, §2, §3
# [10] = test system: HT29 colon tumor; experiment: Tumor PK/PD study in HT29 tumor-bearing mice (tumor volume, inhibitory Emax model); format: in vivo, mouse; conditions: Emax fixed at 1
# Description: as §4
# (§5) Inhibitory E max response PK/PD models based on the Gompertz equation [32] were developed for both tumor types to represent the rate of tumor growth as a function of tumor SN38 concentration. A schematic diagram of the PK/PD model is shown in Online Resource 1. […] The PD parameter values k gr (tumor intrinsic growth rate; day^−1), Limit (limit of tumor growth), and EC 50 (half-maximal effective inhibitory concentrations; μg/g) were optimized using Runge–Kutta 4 integration and the multiple-fit curve fitting module of Berkeley Madonna.
# [11] = set-up: method as in PMID 1651156; conditions: cited from earlier work
# [12] = Pharmacokinetics across nonclinical species (mouse, rat, dog); conditions: rats and dogs, after conventional irinotecan
# Description: Blood samples were collected via a peripheral vein into blood collection tubes containing 1/20th the plasma volume of a dimethyl sulfoxide solution containing 50 mM phenylmethyl sulfonyl fluoride and 1 % acetic acid (v/v). Plasma was harvested by centrifugation at 2,100×g for 20 min at 4 °C. Plasma was further stabilized by addition of 1 % acetic acid and stored at −80 °C until assayed.
# Tumor tissue samples were homogenized in a 9× volume of homogenization buffer (containing sodium fluoride, phenylmethyl sulfonyl fluoride, and sodium dodecyl sulfate) prior to extraction of analytes. SN38 from tumor homogenate was extracted using protein precipitation with acetonitrile and quantified by LC–MS/MS using SN38 calibration standards. LC–MS/MS used a Synergy Hydro, 3 µm, 50 × 2.0-mm column, operated at 50 °C, at a flow rate of 0.4 mL/min with a gradient consisting of 0.1 % formic acid in water and 0.1 % formic acid in acetonitrile, coupled to an API 4000 (Applied Biosystems). […] The predicted mouse and measured rat and dog concentration–time profiles were analyzed with noncompartmental methods within WinNonlin (Professional version 5.2; Pharsight Corporation, Mountain View, CA) to estimate customary PK parameters.
# [13] = test system: NCI-H460 lung tumor; experiment: Tumor PK/PD study in NCI-H460 tumor-bearing mice (tumor volume, inhibitory Emax model); format: in vivo, mouse; conditions: Emax fixed at 1
# Description: as §4, §5
# [14] = MCF-7 breast tumor model, 40 mg/kg Q4dx3 iv, animals/group
# [15] = NCI-N87 gastric tumor model, 60 mg/kg Q7dx3 iv, animals/group
# [16] = A2780 ovarian tumor model, 100 mg/kg Q7dx3 iv, animals/group
structure (smiles),measurement,setting,value
CCc1c2c(nc3ccc(OC(=O)N4CCC(N5CCCCC5)CC4)cc13)-c1cc3c(c(=O)n1C2)COC(=O)[C@]3(O)CC [Irinotecan],single-dose LD10,[1],~ 120 mg/kg
same,TGD,"[2]; MCF-7, 40 mg/kg Q4dx3 iv",22 days
same,Median TTE,"[2]; MCF-7, 40 mg/kg Q4dx3 iv, endpoint 700 mm3",59 days
same,Survivors not reaching tumor endpoint,"[2]; MCF-7, 40 mg/kg Q4dx3 iv, endpoint 700 mm3 or Day 73",2/10
same,regression responses / regression rate (animals),"[2]; MCF-7, Q4dx3",≤ 30%
same,"Tumor regression, Complete",[2]; [14],3/10
same,"Tumor regression, Partial",[2]; [14],0/10
same,regression responses (animals),"[3]; H460, Q4dx3",no tumor regression
same,TGD,"[3]; NCI-H460, 40 mg/kg Q4dx3 iv",11 days
same,Median TTE,"[3]; NCI-H460, 40 mg/kg Q4dx3 iv",23 days
same,Survivors not reaching tumor endpoint,"[3]; NCI-H460, 40 mg/kg Q4dx3 iv",0/10
same,TGD,"[3]; NCI-H460, 90 mg/kg Q4dx3 iv",12 days
same,Median TTE,"[3]; NCI-H460, 90 mg/kg Q4dx3 iv",24 days
same,Survivors not reaching tumor endpoint,"[3]; NCI-H460, 90 mg/kg Q4dx3 iv",0/10
same,"Tumor regression, Complete",[3]; 40 mg/kg Q4dx3 iv,0/10
same,"Tumor regression, Partial",[3]; 40 mg/kg Q4dx3 iv,0/10
same,"Tumor regression, Complete",[3]; 90 mg/kg Q4dx3 iv,0/10
same,"Tumor regression, Partial",[3]; 90 mg/kg Q4dx3 iv,0/10
same,plasma irinotecan AUC,[4],1.2 µg·days/mL
same,tumor irinotecan AUC,[4],4.2 µg·days/g
same,TGD,"[5]; NCI-N87, 60 mg/kg Q7dx3 iv",12 days
same,Median TTE,"[5]; NCI-N87, 60 mg/kg Q7dx3 iv, endpoint 800 mm3",30 days
same,Survivors not reaching tumor endpoint,"[5]; NCI-N87, 60 mg/kg Q7dx3 iv, endpoint 800 mm3 or Day 84",0/10
same,"Tumor regression, Complete",[5]; [15],0/10
same,"Tumor regression, Partial",[5]; [15],0/10
same,maximum body weight loss,[6],≤ 16%
same,treatment-related deaths,[6],no treatment-related deaths
same,TGD,"[7]; A2780, 100 mg/kg Q7dx3 iv",15 days
same,Median TTE,"[7]; A2780, 100 mg/kg Q7dx3 iv, endpoint 2,000 mm3",29 days
same,Survivors not reaching tumor endpoint,"[7]; A2780, 100 mg/kg Q7dx3 iv, endpoint 2,000 mm3 or Day 60",0/10
same,"Tumor regression, Complete",[7]; [16],0/10
same,"Tumor regression, Partial",[7]; [16],0/10
same,time post-dose at which concentrations fall below 0.1 ng/mL,[8],5 to 7 days
same,TGD,"[9]; HT29, 40 mg/kg Q4dx3 iv",10 days
same,Median TTE,"[9]; HT29, 40 mg/kg Q4dx3 iv",26 days
same,Survivors not reaching tumor endpoint,"[9]; HT29, 40 mg/kg Q4dx3 iv",0/10
same,TGD,"[9]; HT29, 90 mg/kg Q4dx3 iv",11 days
same,Median TTE,"[9]; HT29, 90 mg/kg Q4dx3 iv",27 days
same,Survivors not reaching tumor endpoint,"[9]; HT29, 90 mg/kg Q4dx3 iv",0/10
same,regression responses (animals),"[9]; HT29, Q4dx3",no tumor regression
same,"Tumor regression, Complete",[9]; 40 mg/kg Q4dx3 iv,0/10
same,"Tumor regression, Partial",[9]; 40 mg/kg Q4dx3 iv,0/10
same,"Tumor regression, Complete",[9]; 90 mg/kg Q4dx3 iv,0/10
same,"Tumor regression, Partial",[9]; 90 mg/kg Q4dx3 iv,0/10
"CCc1c2c(nc3ccc(O)cc13)-c1cc3c(c(=O)n1C2)COC(=O)[C@]3(O)CC [SN38, 10-hydroxy-7-ethyl camptothecin]",EC50 (half-maximal effective inhibitory tumor SN38 concentration),[10],0.20 µg/g
same,"cytotoxicity in vitro, potency compared with irinotecan",[11],"100- to 1,000 fold"
same,time post-dose at which plasma SN38 was undetectable,[12],24 h
same,EC50 (half-maximal effective inhibitory tumor SN38 concentration),[13],1.2 µg/g
same,t1/2 of SN38,[8]; conventional irinotecan,24 to 47 h
same,time post-dose at which concentrations fall below 0.1 ng/mL,[8],5 to 7 days
